# *1 amine or outer side, *2 acyl side, *3 side chain or, on linkers, in order; H or OH if unused. Where a SMILES comes first, the peptide text is derived from it. Bridges are numbered along the chain shown (N, C = ends). [ ]: non-standard residue; d: D form. The star is where a group is joined. X3 = O=C([C@H](CCCNC[C@@H](O)[C@H](O)[C@H](O)[C@@H](O)[C@H](O)CO)N[*:1])[*:2]; X4 = O=C([C@H](CCNC[C@@H](O)[C@H](O)[C@H](O)[C@@H](O)[C@H](O)CO)N[*:1])[*:2]; Phe(3-CF3) = N[C@@H](Cc1cccc(C(F)(F)F)c1)C(=O)O; Ala(morpholin-4-yl) = N[C@@H](CN1CCOCC1)C(=O)O; Phe(4-COOH) = N[C@@H](Cc1ccc(C(=O)O)cc1)C(=O)O; Bip = N[C@@H](Cc1ccc(-c2ccccc2)cc1)C(=O)O; Phe(3-Me) = Cc1cccc(C[C@H](N)C(=O)O)c1; Abu(3S-NH2) = C[C@H](N)[C@H](N)C(=O)O; Val(3-OH) = CC(C)(O)[C@H](N)C(=O)O; Cha = N[C@@H](CC1CCCCC1)C(=O)O; Tle = CC(C)(C)[C@H](N)C(=O)O; Carboxymethyl = O=C(O)C*; Nle = CCCC[C@H](N)C(=O)O; Orn = NCCC[C@H](N)C(=O)O; Pra = C#CC[C@H](N)C(=O)O; Dab = NCC[C@H](N)C(=O)O; Nva = CCC[C@H](N)C(=O)O
# Biological target: T1, human PD-1 / PD-L1-Ig binding on Jurkat cell line over-expressing human PD-1 (Jurkat-PD-1) (Homo sapiens, UniProt Q15116)
# T1 construct: expressed in transfected cells; host or cells: Jurkat
# T1 sequence (Q15116 25-288): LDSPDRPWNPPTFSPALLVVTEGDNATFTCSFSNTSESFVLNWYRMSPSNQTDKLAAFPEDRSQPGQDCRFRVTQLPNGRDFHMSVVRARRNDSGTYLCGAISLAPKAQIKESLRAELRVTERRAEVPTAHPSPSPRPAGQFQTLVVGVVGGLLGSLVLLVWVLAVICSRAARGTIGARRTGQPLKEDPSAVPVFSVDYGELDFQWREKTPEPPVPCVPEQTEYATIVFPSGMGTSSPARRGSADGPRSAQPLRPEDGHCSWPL
# Assay: Jurkat-PD-1 Cell Binding High-Content Screening Assay (CBA)
# Assay type: cell-based
# Settings: Jurkat-PD-1 cells, PE-labeled PD-L1-Ig 20 nM final; read-out: Jurkat HPD1_PDL1 IC50
# Method in brief: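 Read-out: high-content imaging of PE-tagged PD-L1-Ig bound to Jurkat cells overexpressing human PD-1, after fixation with 4% paraformaldehyde and Hoechst 33342 nuclear staining. Ligand was used at 20 nM final for 1 hour, after a 2 h compound exposure at 37° C in serum-containing DMEM.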
row,SMILES,IC50
1,C#CC[C@H](NC(=O)[C@@H]1CSCC(=O)N[C@@H](CCC)C(=O)N[C@@H](Cc2ccc(OCC(=O)O)cc2)C(=O)N[C@@H](CC(=O)O)C(=O)N[C@@H](Cc2cccc(C)c2)C(=O)N[C@@H](Cc2ccc(OCC(=O)O)cc2)C(=O)N[C@@H](Cc2ccc(-c3ccccc3)cc2)C(=O)N[C@@H](Cc2ccc(OCC(=O)O)cc2)C(=O)N[C@@H](CCCC)C(=O)N[C@H](CC(C)C)C(=O)N[C@@H](CCNC[C@@H](O)[C@H](O)[C@H](O)[C@@H](O)[C@H](O)CO)C(=O)N[C@@H](CC2CCCCC2)C(=O)N[C@@H](C(C)C)C(=O)N[C@@H](CCC(=O)O)C(=O)N1)C(=O)O [Compound 2699] ({CH2CO}-[Nva]Y(Carboxymethyl)D[Phe(3-Me)]Y(Carboxymethyl)[Bip]Y(Carboxymethyl)[Nle][dL][X4][Cha]VEC[Pra]-OH; thioether N-14),239 nM
2,C#CC[C@H](NC(=O)[C@@H]1CSCC(=O)N[C@@H](CCC)C(=O)N[C@@H](Cc2ccc(OCC(=O)O)cc2)C(=O)N[C@@H](CC(=O)O)C(=O)N[C@@H](Cc2cccc(C)c2)C(=O)N[C@@H](Cc2ccc(OCC(=O)O)cc2)C(=O)N[C@@H](Cc2ccc(-c3ccccc3)cc2)C(=O)N[C@@H](Cc2ccc(OCC(=O)O)cc2)C(=O)N[C@@H](CCCNC[C@@H](O)[C@H](O)[C@H](O)[C@@H](O)[C@H](O)CO)C(=O)N[C@H](CC(C)C)C(=O)N[C@@H](CCNC[C@@H](O)[C@H](O)[C@H](O)[C@@H](O)[C@H](O)CO)C(=O)N[C@@H](CC2CCCCC2)C(=O)N[C@@H](C(C)C)C(=O)N[C@@H](CCC(=O)O)C(=O)N1)C(=O)O [Compound 2700] ({CH2CO}-[Nva]Y(Carboxymethyl)D[Phe(3-Me)]Y(Carboxymethyl)[Bip]Y(Carboxymethyl)[X3][dL][X4][Cha]VEC[Pra]-OH; thioether N-14),62.3 nM
3,C#CC[C@H](NC(=O)[C@@H]1CSCC(=O)N[C@@H](CCC)C(=O)N[C@@H](Cc2ccc(OCC(=O)O)cc2)C(=O)N[C@@H](CC(=O)O)C(=O)N[C@@H](Cc2cccc(C)c2)C(=O)N[C@@H](Cc2ccc(OCC(=O)O)cc2)C(=O)N[C@@H](Cc2ccc(-c3ccccc3)cc2)C(=O)N[C@@H](Cc2ccc(OCC(=O)O)cc2)C(=O)N[C@@H](CCCN)C(=O)N[C@H](CC(C)C)C(=O)N[C@@H](CCC)C(=O)N[C@@H](CC2CCCCC2)C(=O)N[C@@H](C(C)C)C(=O)N[C@@H](CCC(=O)O)C(=O)N1)C(=O)O [Compound 2701] ({CH2CO}-[Nva]Y(Carboxymethyl)D[Phe(3-Me)]Y(Carboxymethyl)[Bip]Y(Carboxymethyl)[Orn][dL][Nva][Cha]VEC[Pra]-OH; thioether N-14),163 nM
4,C#CC[C@H](NC(=O)[C@@H]1CSCC(=O)N[C@@H](CCC)C(=O)N[C@@H](Cc2ccc(OCC(=O)O)cc2)C(=O)N[C@@H](CC(=O)O)C(=O)N[C@@H](Cc2cccc(C)c2)C(=O)N[C@@H](Cc2ccc(OCC(=O)O)cc2)C(=O)N[C@@H](Cc2ccc(-c3ccccc3)cc2)C(=O)N[C@@H](Cc2ccc(OCC(=O)O)cc2)C(=O)N[C@@H](CCCN)C(=O)N[C@H](CC(C)C)C(=O)N[C@@H](CCN)C(=O)N[C@@H](CC2CCCCC2)C(=O)N[C@@H](C(C)C)C(=O)N[C@@H](CCC(=O)O)C(=O)N1)C(=O)O [Compound 2702] ({CH2CO}-[Nva]Y(Carboxymethyl)D[Phe(3-Me)]Y(Carboxymethyl)[Bip]Y(Carboxymethyl)[Orn][dL][Dab][Cha]VEC[Pra]-OH; thioether N-14),50.5 nM
5,C#CC[C@H](NC(=O)[C@@H]1CSCC(=O)N[C@@H](CCC)C(=O)N[C@@H](Cc2ccc(OCC(=O)O)cc2)C(=O)N[C@@H](CC(=O)O)C(=O)N[C@@H](Cc2cccc(C)c2)C(=O)N[C@@H](Cc2ccc(OCC(=O)O)cc2)C(=O)N[C@@H](Cc2ccc(-c3ccccc3)cc2)C(=O)N[C@@H](Cc2ccc(OCC(=O)O)cc2)C(=O)N[C@@H](CCCC)C(=O)N[C@H](CC(C)C)C(=O)N[C@@H](CCN)C(=O)N[C@@H](CC2CCCCC2)C(=O)N[C@@H](C(C)C)C(=O)N[C@@H](CCC(=O)O)C(=O)N1)C(=O)O [Compound 2703] ({CH2CO}-[Nva]Y(Carboxymethyl)D[Phe(3-Me)]Y(Carboxymethyl)[Bip]Y(Carboxymethyl)[Nle][dL][Dab][Cha]VEC[Pra]-OH; thioether N-14),412 nM
6,C#CC[C@H](NC(=O)[C@@H]1CSCC(=O)N[C@@H](CCN)C(=O)N[C@@H](Cc2ccc(C(=O)O)cc2)C(=O)N[C@@H](CC(=O)O)C(=O)N[C@@H](Cc2cccc(C)c2)C(=O)N[C@@H](Cc2ccc(C(=O)O)cc2)C(=O)N[C@@H](Cc2ccc(-c3ccccc3)cc2)C(=O)N[C@@H](Cc2ccc(C(=O)O)cc2)C(=O)N[C@@H](CCCN)C(=O)N[C@H](CC(C)C)C(=O)N[C@@H](CCN)C(=O)N[C@@H](CC2CCCCC2)C(=O)N[C@@H](C(C)(C)O)C(=O)N[C@@H](CO)C(=O)N1)C(=O)O [Compound 2704] ({CH2CO}-[Dab][Phe(4-COOH)]D[Phe(3-Me)][Phe(4-COOH)][Bip][Phe(4-COOH)][Orn][dL][Dab][Cha][Val(3-OH)]SC[Pra]-OH; thioether N-14),316 nM
7,C#CC[C@H](NC(=O)[C@H](CCN)NC(=O)[C@@H]1CSCC(=O)N[C@@H](CC(C)C)C(=O)N[C@@H](Cc2ccc(C(=O)O)cc2)C(=O)N[C@@H](CC(=O)O)C(=O)N[C@@H](Cc2cccc(C)c2)C(=O)N[C@@H](Cc2ccc(C(=O)O)cc2)C(=O)N[C@@H](Cc2ccc(-c3ccccc3)cc2)C(=O)N[C@@H](Cc2ccc(C(=O)O)cc2)C(=O)N[C@@H](CCCN)C(=O)N[C@H](CC(C)C)C(=O)N[C@@H](CCN)C(=O)N[C@@H](CC2CCCCC2)C(=O)N[C@@H](C(C)C)C(=O)N[C@@H](CCC(=O)O)C(=O)N1)C(=O)O [Compound 2706] ({CH2CO}-L[Phe(4-COOH)]D[Phe(3-Me)][Phe(4-COOH)][Bip][Phe(4-COOH)][Orn][dL][Dab][Cha]VEC[Dab][Pra]-OH; thioether N-14),2.4 nM
8,C#CC[C@H](NC(=O)[C@H](CCN)NC(=O)[C@@H]1CSCC(=O)N[C@@H](CC(C)C)C(=O)N[C@@H](Cc2ccc(OCC(=O)O)cc2)C(=O)N[C@@H](CC(=O)O)C(=O)N[C@@H](Cc2cccc(C)c2)C(=O)N[C@@H](Cc2ccc(OCC(=O)O)cc2)C(=O)N[C@@H](Cc2ccc(-c3ccccc3)cc2)C(=O)N[C@@H](Cc2ccc(OCC(=O)O)cc2)C(=O)N[C@@H](CCCN)C(=O)N[C@H](CC(C)C)C(=O)N[C@@H](CCN)C(=O)N[C@@H](CC2CCCCC2)C(=O)N[C@@H](C(C)C)C(=O)N[C@@H](CCC(=O)O)C(=O)N1)C(=O)O [Compound 2707] ({CH2CO}-LY(Carboxymethyl)D[Phe(3-Me)]Y(Carboxymethyl)[Bip]Y(Carboxymethyl)[Orn][dL][Dab][Cha]VEC[Dab][Pra]-OH; thioether N-14),5 nM
9,CC(C)C[C@H]1NC(=O)[C@H](CCCN)NC(=O)[C@H](Cc2ccc(C(=O)O)cc2)NC(=O)[C@H](Cc2ccc(-c3ccccc3)cc2)NC(=O)[C@H](Cc2ccc(C(=O)O)cc2)NC(=O)[C@H](Cc2cccc(C(F)(F)F)c2)NC(=O)[C@H](CC(=O)O)NC(=O)[C@H](Cc2ccc(C(=O)O)cc2)NC(=O)[C@H]([C@H](C)N)NC(=O)CSC[C@@H](C(=O)N[C@@H](CCN)C(N)=O)NC(=O)[C@H](CO)NC(=O)[C@H](C(C)(C)C)NC(=O)[C@H](CC2CCCCC2)NC(=O)[C@H](CCN)NC1=O [Example 2708] ({CH2CO}-[Abu(3S-NH2)][Phe(4-COOH)]D[Phe(3-CF3)][Phe(4-COOH)][Bip][Phe(4-COOH)][Orn][dL][Dab][Cha][Tle]SC[Dab]-NH2; thioether N-14),0.6 nM
10,Cc1cccc(C[C@@H]2NC(=O)[C@H](CC(=O)O)NC(=O)[C@H](Cc3ccc(C(=O)O)cc3)NC(=O)[C@H](CCN)NC(=O)CSC[C@@H](C(=O)N[C@@H](CCN)C(N)=O)NC(=O)[C@H](CO)NC(=O)[C@H](C(C)(C)O)NC(=O)[C@H](CC3CCCCC3)NC(=O)[C@H](CCN)NC(=O)[C@@H](CC(C)C)NC(=O)[C@H](CCCN)NC(=O)[C@H](Cc3ccc(C(=O)O)cc3)NC(=O)[C@H](Cc3ccc(-c4ccccc4)cc3)NC(=O)[C@H](Cc3ccc(C(=O)O)cc3)NC2=O)c1 [Example 2709] ({CH2CO}-[Dab][Phe(4-COOH)]D[Phe(3-Me)][Phe(4-COOH)][Bip][Phe(4-COOH)][Orn][dL][Dab][Cha][Val(3-OH)]SC[Dab]-NH2; thioether N-14),2.3 nM
11,CC(C)C[C@H]1NC(=O)[C@H](CCCN)NC(=O)[C@H](Cc2ccc(C(=O)O)cc2)NC(=O)[C@H](Cc2ccc(-c3ccccc3)cc2)NC(=O)[C@H](Cc2ccc(C(=O)O)cc2)NC(=O)[C@H](Cc2cccc(C(F)(F)F)c2)NC(=O)[C@H](CC(=O)O)NC(=O)[C@H](Cc2ccc(C(=O)O)cc2)NC(=O)[C@H](CN2CCOCC2)NC(=O)CSC[C@@H](C(=O)N[C@@H](CCN)C(N)=O)NC(=O)[C@H](CO)NC(=O)[C@H](C(C)(C)O)NC(=O)[C@H](CC2CCCCC2)NC(=O)[C@H](CCN)NC1=O [Example 2710] ({CH2CO}-[Ala(morpholin-4-yl)][Phe(4-COOH)]D[Phe(3-CF3)][Phe(4-COOH)][Bip][Phe(4-COOH)][Orn][dL][Dab][Cha][Val(3-OH)]SC[Dab]-NH2; thioether N-14),1.2 nM
12,CC(C)C[C@H]1NC(=O)[C@H](CCCN)NC(=O)[C@H](Cc2ccc(C(=O)O)cc2)NC(=O)[C@H](Cc2ccc(-c3ccccc3)cc2)NC(=O)[C@H](Cc2ccc(C(=O)O)cc2)NC(=O)[C@H](Cc2cccc(C(F)(F)F)c2)NC(=O)[C@H](CC(=O)O)NC(=O)[C@H](Cc2ccc(C(=O)O)cc2)NC(=O)[C@H](CN2CCOCC2)NC(=O)CSC[C@@H](C(=O)N[C@@H](CCN)C(N)=O)NC(=O)[C@H](CCC(=O)O)NC(=O)[C@H](C(C)C)NC(=O)[C@H](CC2CCCCC2)NC(=O)[C@H](CCN)NC1=O [Example 2712] ({CH2CO}-[Ala(morpholin-4-yl)][Phe(4-COOH)]D[Phe(3-CF3)][Phe(4-COOH)][Bip][Phe(4-COOH)][Orn][dL][Dab][Cha]VEC[Dab]-NH2; thioether N-14),2.8 nM
